A short description of test [1]: NIH-3T3 fibroblast cytotoxicity, dose response, cytotoxicity control, cell-based, fluorescence, Alamar Blue, secondary assay (AID 2327).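 Note: NIH-3T3 mouse fibroblasts cultured with fluconazole at 8 µg/mL.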 The format is functional.
Test [2] in a line: inhibitors of firefly luciferase expression or activity, dose response, H4 neuroglioma cells, luminescence (AID 1990). The format is functional, cell-based.
The test system of test [3] is Streptococcus sp. 'group A'. Kind of test: growth inhibition of control SK(-) GAS strain, dose response, counter-screen for streptokinase expression inhibitor project, luminescence, kanamycin, BacTiterGlo, confirmation (AID 1900). The format is functional, organism-based.
For test [4], the system named is BJ. Kind of test: cytotoxicity toward BJ-TERT fibroblasts, dose response, cell-based, RAS-independent, luminescence (AID 1933). The class given is functional. The following applies: Homo sapiens.
A short description of test [5]: Luminescence Cell-Based Dose Response HTS to Identify Inhibitors of 5'UTR Stem-Loop Driven Prion Protein mRNA Translation in H4 Neuroglioblastoma Cells. [Related pubchem assays: 1827 (Project Summary), 1813 (Primary HTS)]. The class given is functional.
Test [6] in a line: inhibitors of SNCA 5'UTR-driven reporter translation, confirmation, H4 neuroglioma cells, luminescence (AID 1988). The format is functional, cell-based.
The subject of test [7] is BJ. Kind of test: cells. The class given is functional, cell-based. Particulars: Homo sapiens.
A short description of test [8]: C. albicans growth with fluconazole, confirmation, fluorescence, retest (AID 2467). The class given is functional, cell-based.
Test [9] relates to BJ. Kind of test: cytotoxicity toward BJ-TERT-LT-ST fibroblasts, dose response, cell-based, RAS-independent, luminescence (AID 1935).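 Note: BJ fibroblasts immortalized with TERT plus LT and ST oncogenes.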 The format is functional. Particulars: Homo sapiens.
Test [10] in a line: cytotoxicity toward DRD oncogenic fibroblasts, dose response, cell-based, non-viral oncogenic, luminescence (AID 1934). The following applies: Homo sapiens. The format is functional.
The test system of test [11] is Streptococcus. In words: Group A Streptococcus viability loss, dose response, counter-screen for streptokinase expression inhibitor project, luminescence, BacTiterGlo (AID 1915).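 Note: potency for reduction of bacterial viability or growth.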 The format is functional, organism-based.
The target of test [12] is Beta-galactosidase (Escherichia coli, UniProt Q8VNN2). In words: beta-galactosidase enzyme inhibitors and activators, dose response, artefact control for CCR6 antagonist project, biochemical, E. coli enzyme, set 3 (AID 504712). The format is functional.
The target of test [13] is T1, Short transient receptor potential channel 4 (Mus musculus, UniProt Q9QUQ5).
T1 sequence (Q9QUQ5 whole entry): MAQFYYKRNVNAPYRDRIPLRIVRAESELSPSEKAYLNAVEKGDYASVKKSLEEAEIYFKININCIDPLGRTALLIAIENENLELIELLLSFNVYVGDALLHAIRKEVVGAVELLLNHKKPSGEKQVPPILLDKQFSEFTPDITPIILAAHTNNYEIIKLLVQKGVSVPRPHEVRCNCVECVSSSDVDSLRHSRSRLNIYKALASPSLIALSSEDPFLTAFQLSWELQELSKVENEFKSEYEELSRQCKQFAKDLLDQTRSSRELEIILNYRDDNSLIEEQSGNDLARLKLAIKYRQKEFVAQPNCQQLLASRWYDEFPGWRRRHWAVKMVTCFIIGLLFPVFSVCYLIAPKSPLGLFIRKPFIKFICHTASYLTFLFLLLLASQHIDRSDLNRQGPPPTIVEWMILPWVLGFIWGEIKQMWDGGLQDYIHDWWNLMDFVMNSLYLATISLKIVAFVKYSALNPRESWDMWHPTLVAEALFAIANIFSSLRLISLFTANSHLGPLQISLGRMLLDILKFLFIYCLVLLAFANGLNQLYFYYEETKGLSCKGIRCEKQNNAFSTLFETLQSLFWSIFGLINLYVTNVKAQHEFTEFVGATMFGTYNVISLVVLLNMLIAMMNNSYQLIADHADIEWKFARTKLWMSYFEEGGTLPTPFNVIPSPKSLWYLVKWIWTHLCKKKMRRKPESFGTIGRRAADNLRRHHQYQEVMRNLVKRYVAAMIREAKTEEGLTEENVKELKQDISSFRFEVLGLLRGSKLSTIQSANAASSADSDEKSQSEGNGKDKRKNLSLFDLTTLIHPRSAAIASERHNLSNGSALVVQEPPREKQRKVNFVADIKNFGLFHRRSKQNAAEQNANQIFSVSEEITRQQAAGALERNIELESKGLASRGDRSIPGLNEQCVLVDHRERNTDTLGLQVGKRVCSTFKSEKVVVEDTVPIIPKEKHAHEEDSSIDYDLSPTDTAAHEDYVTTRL
In words: mouse TRPC4 channel activators, dose response, cell-based, HEK293 TRPC4/mu-opioid, Fluo-4 calcium (AID 434937). The format is functional.

A short description of test [14]: cytotoxicity in HEK-293T cells, dose response, cytotoxicity control for TCR NF-kB inhibitor project, luminescence, T-cell screen hits (AID 489026).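 Note: cells exposed to compound about 14 hours before the viability readout.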 The format is functional, cell-based.
The target in test [15] is T2, Insulin-degrading enzyme (Homo sapiens, UniProt P14735).
T2 sequence (P14735 whole entry): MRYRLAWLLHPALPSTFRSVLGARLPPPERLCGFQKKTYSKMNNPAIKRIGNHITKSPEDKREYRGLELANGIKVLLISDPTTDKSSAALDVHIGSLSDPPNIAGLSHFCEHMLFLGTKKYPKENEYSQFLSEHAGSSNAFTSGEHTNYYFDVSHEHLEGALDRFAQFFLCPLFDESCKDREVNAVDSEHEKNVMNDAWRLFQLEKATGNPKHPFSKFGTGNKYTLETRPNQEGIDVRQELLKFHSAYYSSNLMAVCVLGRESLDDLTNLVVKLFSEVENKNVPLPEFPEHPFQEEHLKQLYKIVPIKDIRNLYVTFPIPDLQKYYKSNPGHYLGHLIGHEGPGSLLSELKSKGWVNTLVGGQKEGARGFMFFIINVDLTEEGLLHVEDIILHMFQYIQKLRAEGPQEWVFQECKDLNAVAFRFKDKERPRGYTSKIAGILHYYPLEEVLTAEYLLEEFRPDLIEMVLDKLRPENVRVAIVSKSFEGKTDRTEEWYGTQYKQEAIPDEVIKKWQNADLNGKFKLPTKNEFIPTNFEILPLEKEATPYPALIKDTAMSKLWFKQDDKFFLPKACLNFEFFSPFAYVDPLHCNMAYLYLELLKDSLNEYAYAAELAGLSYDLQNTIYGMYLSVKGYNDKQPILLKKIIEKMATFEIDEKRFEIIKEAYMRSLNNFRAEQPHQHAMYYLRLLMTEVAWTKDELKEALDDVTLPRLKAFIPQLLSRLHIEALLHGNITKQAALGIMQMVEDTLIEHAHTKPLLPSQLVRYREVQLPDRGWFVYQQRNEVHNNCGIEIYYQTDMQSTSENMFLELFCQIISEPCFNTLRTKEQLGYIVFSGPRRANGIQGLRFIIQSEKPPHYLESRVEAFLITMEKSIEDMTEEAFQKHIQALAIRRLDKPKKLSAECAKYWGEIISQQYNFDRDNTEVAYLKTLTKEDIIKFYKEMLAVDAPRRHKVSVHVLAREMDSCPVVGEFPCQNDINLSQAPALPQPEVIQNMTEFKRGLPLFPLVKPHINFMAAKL
In words: activators of recombinant IDE enzyme, dose response, counter-screen for IDE activator project, biochemical, fluorescence polarization (AID 588681).

For test [16], the system named is BJ. In words: cytotoxicity toward Ras-transformed BJeLR fibroblasts, dose response, cell-based, alamar blue fluorescence, cherrypicked samples (AID 2631).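 Note: confirmatory dose-response assay in RAS-dependent BJ fibroblasts engineered with TERT, LT and ST, with cytotoxicity read by fluorescence.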 Particulars: Homo sapiens. The class given is functional.
For test [17], the target named is T2, Insulin-degrading enzyme. In words: activators of endogenous IDE in HEK cells, dose response, cell-based, fluorescence polarization (AID 588439). The class given is functional.
In test [18] the test system is INS1. Kind of test: beta cell apoptosis inhibitors, cytokine rescue, dose response, luminescence, retest (AID 449756).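 Note: cell death triggered by IL-1 beta plus TNF-alpha plus IFN-gamma mixture; protective hits raise ATP signal compared with cytokine alone wells.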 The class given is functional, cell-based. The following applies: Rattus norvegicus.
Test [19] relates to HEK293. Kind of test: HEK cell cytotoxicity by LDH release, dose response, cytotoxicity control for IDE activator project, fluorescence, HEK cells (AID 588440).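 Note: cytotoxicity by LDH release measuring loss of membrane integrity.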 The format is functional, cell-based. The following applies: Homo sapiens.
Test [20] has as its system HEK293. Kind of test: optical interference in Abeta FP readout, dose response, artefact control for IDE activator project, biochemical, fluorescence polarization (AID 588442). Particulars: Homo sapiens. The format is functional, cell-based.
Test [21] can be described thus: Shn3 3'UTR reporter inhibitors, dose response, cell-based, Clone20 osteoblasts, firefly luciferase, cherry-picked (AID 624132).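 Note: firefly luciferase luminescence from reporter carrying the Shn3 3'UTR in osteoblasts.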 The format is functional.
A short description of test [22]: HepG2 cell cytotoxicity, dose response, cytotoxicity control for Shn3 inhibitor project, CellTiter-Glo, cherry-picked (AID 624134). The class given is functional, cell-based.
The nature of test [23]: control 3'UTR Renilla luciferase suppression, dose response, counter-screen for Shn3 inhibitor project, cell-based, Clone20-Shn3RL, cherry-picked (AID 624133). The format is functional.
In test [24] the target is Protein disulfide-isomerase (Homo sapiens, UniProt P07237). In words: PDI inhibitors, insulin aggregation turbidity, dose response, biochemical, absorbance, cherry-picked samples (AID 602350). The class given is functional.
Test [25] addresses Megakaryocyte-associated tyrosine-protein kinase (Homo sapiens, UniProt P42679). The format is functional.
Test [26] deals with Ribosomal protein S6 kinase beta-1 (Homo sapiens, UniProt P23443). The class given is functional.
Test [27] has as its target Serine/threonine-protein kinase pim-3 (Homo sapiens, UniProt Q86V86). The format is functional.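 Note: value obtained as one member of a broad kinase panel profiling effort.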
Test [28] has as its target MAP kinase-activated protein kinase 3 (Homo sapiens, UniProt Q16644). The format is functional.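 Note: value comes from a kinome-wide profiling panel in which MAPKAPK3 is one of the panel members.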
Test [29] concerns the target Aurora kinase B (Homo sapiens, UniProt Q96GD4). The class given is functional.
The target of test [30] is Dual specificity tyrosine-phosphorylation-regulated kinase 1A (Homo sapiens, UniProt Q13627). The format is functional.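 Note: measured against DYRK1A as one member of a broad kinome profiling panel.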

The source made the active and inactive calls.

This note sets out measurements from ChEMBL document CHEMBL1201862, “PubChem BioAssay data set” (2004).

Protein disulfide-isomerase, sequence (P07237 whole entry): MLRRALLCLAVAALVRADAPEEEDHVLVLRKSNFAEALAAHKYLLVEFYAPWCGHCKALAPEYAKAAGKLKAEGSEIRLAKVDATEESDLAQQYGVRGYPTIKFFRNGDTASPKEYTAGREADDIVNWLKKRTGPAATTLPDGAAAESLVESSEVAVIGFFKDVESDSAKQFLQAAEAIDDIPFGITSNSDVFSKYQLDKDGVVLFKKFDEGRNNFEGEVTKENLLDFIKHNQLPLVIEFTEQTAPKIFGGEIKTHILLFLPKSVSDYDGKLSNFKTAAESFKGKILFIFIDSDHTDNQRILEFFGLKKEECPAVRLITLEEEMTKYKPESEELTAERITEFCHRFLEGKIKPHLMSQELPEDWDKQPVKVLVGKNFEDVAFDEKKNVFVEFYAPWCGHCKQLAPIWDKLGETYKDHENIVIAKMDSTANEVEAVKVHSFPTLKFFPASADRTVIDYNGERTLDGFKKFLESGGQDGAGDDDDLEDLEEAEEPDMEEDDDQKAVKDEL
Aurora kinase B, sequence (Q96GD4 whole entry): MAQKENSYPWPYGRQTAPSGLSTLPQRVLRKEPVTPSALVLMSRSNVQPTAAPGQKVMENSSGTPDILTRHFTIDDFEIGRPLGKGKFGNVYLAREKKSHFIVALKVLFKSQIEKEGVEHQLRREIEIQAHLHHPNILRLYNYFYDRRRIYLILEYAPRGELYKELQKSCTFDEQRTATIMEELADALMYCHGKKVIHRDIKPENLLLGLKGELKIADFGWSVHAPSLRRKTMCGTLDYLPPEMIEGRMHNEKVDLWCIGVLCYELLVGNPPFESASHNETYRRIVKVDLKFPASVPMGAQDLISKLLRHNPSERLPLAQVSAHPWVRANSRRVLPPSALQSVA
MAP kinase-activated protein kinase 3, sequence (Q16644 whole entry): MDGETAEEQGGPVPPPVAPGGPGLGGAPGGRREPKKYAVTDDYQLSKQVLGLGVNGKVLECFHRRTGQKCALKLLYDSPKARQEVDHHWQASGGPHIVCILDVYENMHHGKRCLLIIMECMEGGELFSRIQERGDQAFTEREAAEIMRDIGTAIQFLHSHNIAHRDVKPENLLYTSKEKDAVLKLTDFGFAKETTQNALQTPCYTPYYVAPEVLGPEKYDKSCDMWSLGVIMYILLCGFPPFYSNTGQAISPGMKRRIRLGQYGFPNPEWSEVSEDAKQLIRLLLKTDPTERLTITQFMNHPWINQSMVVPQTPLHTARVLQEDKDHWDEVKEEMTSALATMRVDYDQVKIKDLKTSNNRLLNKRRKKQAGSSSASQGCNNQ
Beta-galactosidase, sequence (Q8VNN2 whole entry): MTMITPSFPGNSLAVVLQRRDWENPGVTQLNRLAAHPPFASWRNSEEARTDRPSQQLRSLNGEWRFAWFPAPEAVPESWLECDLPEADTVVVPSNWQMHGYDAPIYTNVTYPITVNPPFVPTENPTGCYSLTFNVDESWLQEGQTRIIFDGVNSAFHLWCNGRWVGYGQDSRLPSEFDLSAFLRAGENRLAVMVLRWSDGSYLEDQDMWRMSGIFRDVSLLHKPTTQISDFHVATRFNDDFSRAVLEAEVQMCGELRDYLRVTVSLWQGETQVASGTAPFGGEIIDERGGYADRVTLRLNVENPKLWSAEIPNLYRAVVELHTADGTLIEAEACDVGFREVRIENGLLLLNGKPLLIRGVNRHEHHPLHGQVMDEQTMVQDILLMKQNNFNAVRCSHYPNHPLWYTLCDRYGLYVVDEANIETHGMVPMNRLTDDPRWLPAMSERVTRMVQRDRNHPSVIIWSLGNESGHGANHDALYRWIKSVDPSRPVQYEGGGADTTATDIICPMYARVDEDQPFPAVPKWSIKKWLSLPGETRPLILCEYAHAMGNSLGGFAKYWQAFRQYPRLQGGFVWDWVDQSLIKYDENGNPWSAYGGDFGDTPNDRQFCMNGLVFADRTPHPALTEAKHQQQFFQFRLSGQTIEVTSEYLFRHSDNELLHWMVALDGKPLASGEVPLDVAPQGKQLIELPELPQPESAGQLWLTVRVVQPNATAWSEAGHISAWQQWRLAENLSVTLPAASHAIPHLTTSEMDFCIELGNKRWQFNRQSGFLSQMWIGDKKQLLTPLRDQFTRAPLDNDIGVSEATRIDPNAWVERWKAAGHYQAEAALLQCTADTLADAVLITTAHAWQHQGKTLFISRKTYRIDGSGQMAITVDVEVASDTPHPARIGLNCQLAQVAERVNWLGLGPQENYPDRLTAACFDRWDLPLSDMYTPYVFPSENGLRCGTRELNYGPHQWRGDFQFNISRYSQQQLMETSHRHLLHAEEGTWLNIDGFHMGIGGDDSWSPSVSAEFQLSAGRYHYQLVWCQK
Ribosomal protein S6 kinase beta-1, sequence (P23443 whole entry): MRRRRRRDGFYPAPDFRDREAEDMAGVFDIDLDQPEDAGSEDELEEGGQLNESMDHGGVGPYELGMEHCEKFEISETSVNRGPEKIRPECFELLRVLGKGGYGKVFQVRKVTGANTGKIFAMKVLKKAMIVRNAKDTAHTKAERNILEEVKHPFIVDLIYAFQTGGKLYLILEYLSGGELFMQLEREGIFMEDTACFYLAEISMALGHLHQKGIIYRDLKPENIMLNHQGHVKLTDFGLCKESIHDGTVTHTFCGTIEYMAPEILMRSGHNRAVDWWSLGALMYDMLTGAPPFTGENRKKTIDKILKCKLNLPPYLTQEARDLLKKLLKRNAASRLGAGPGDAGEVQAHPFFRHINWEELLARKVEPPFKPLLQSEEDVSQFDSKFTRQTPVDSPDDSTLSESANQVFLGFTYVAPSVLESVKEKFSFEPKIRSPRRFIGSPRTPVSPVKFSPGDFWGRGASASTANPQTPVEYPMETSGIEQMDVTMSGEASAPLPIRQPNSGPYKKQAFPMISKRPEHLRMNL
Megakaryocyte-associated tyrosine-protein kinase, sequence (P42679 whole entry): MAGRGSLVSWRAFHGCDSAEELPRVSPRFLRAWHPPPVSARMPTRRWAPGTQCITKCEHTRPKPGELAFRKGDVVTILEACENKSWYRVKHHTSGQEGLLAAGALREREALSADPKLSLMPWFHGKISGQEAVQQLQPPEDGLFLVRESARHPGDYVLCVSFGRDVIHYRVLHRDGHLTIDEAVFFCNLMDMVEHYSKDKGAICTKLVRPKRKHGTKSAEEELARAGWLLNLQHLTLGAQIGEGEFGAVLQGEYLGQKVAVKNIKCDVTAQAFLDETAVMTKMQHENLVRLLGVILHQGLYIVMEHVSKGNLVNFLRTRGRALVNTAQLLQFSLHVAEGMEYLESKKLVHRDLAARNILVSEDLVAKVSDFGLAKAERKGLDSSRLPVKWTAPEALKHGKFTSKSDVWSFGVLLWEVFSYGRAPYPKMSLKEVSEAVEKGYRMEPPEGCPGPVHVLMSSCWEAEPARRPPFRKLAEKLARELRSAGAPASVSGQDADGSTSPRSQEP

As for `CNC[C@H](CC1CCCCC1)NC[C@H](Cc1ccccc1)NCCC12CC3CC(CC(C3)C1)C2`, the EC50 was 136 µM (inconclusive) in test [1]; 5.5 µM (active) in test [2]; 3.27 µM (active) in test [3]; 2.64 µM (inconclusive) in test [4]; > 120 µM (not active) in test [5]; > 120 µM (not active) in test [6]. The EC50 in [7] is 5.14 µM (inconclusive); in test [8], 3.71 µM (active); in test [9] it was 2 µM (active); in [10], 4.21 µM (active); in [11] it was 8.1 µM (active); in test [13] it was 8.41 µM (active). Moreover, the EC50 was > 54.7 µM (inactive) in [15], 0.509 µM (inconclusive) in test [16], 7.02 µM (active) in [17] and > 55.9 µM (inactive) in test [20]. Moreover, the values for the IC50 in [12], in [14] and in [19] were > 66.6 µM (inactive), 22.8 µM (inactive) and 3.37 µM (active), respectively. Moreover, the AC50 is 3.77 µM (active) in test [18], 5.51 µM (active) in test [21], 4.47 µM (active) in [22] and 7.45 µM (active) in test [23].

In the case of `CN(C)C(=O)CSc1nnc([C@H](Cc2c[nH]c3ccccc23)NC(=O)OC(C)(C)C)o1`, the concentration at half-maximal activity (AC50) in test [24] is 19.5 µM (active).

Consider `Cc1c(F)c(N2CCC(N)C2)nc2[nH]cc(C(=O)O)c(=O)c12` (stereo not given), for which the inhibition constant Ki in [25] is 2 µM (active); in test [26], 2 µM (active); in test [27], 5.01 µM (active); in test [28], 7.94 µM (active); in [29], 6.31 µM (active); in test [30], 3.16 µM (active).
